Measured values taken from PubChem BioAssay AID328 (DTP/NCI, 2004).
Where “and” joins values, the source holds several entries; their conditions need not be identical. Equal entries are not always repeated. Inconclusive results and toxic doses are left out.

System: BDF1 mice, P388 leukemia ip, median survival T/C
Assay: NCI In Vivo Anticancer Drug Screen. Data for tumor model P388 Leukemia (intraperitoneal) in B6D2F1 (BDF1) mice
Details: endpoint: median survival time, higher = longer survival
In short: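 Vehicle-dosed animals serve as the reference; survival of compound-dosed, tumour-implanted mice is divided by it.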

[1] = dose: 50.0 mg/kg/injection, schedule: Q01DX009 (ip), vehicle: Klucel (hydroxypropylcellulose) (HPC)
[2] = dose: 100.0 mg/kg/injection, schedule: Q01DX009 (ip), vehicle: Klucel (hydroxypropylcellulose) (HPC)
[3] = dose: 100.0 mg/kg/injection, schedule: Q04DX003 (ip), vehicle: Klucel (hydroxypropylcellulose) (HPC)
[4] = dose: 200.0 mg/kg/injection, schedule: Q01DX009 (ip), vehicle: Klucel (hydroxypropylcellulose) (HPC)
[5] = dose: 200.0 mg/kg/injection, schedule: Q04DX003 (ip), vehicle: Klucel (hydroxypropylcellulose) (HPC)
[6] = dose: 50.0 mg/kg/injection, schedule: Q01DX009 (ip), vehicle: saline with Tween-80
[7] = dose: 100.0 mg/kg/injection, schedule: Q01DX001 (ip), vehicle: saline
[8] = dose: 100.0 mg/kg/injection, schedule: Q01DX009 (ip), vehicle: saline
[9] = dose: 100.0 mg/kg/injection, schedule: Q04DX003 (ip), vehicle: saline
[10] = dose: 200.0 mg/kg/injection, schedule: Q01DX001 (ip), vehicle: saline
[11] = dose: 200.0 mg/kg/injection, schedule: Q01DX009 (ip), vehicle: saline
[12] = dose: 200.0 mg/kg/injection, schedule: Q04DX003 (ip), vehicle: saline
[13] = dose: 400.0 mg/kg/injection, schedule: Q01DX009 (ip), vehicle: saline
[14] = dose: 400.0 mg/kg/injection, schedule: Q04DX003 (ip), vehicle: saline
[15] = dose: 400.0 mg/kg/injection, schedule: Q04DX003 (ip), vehicle: Klucel (hydroxypropylcellulose) (HPC)
[16] = dose: 12.5 mg/kg/injection, schedule: Q04DX003 (ip), vehicle: Klucel (hydroxypropylcellulose) (HPC)
[17] = dose: 25.0 mg/kg/injection, schedule: Q04DX003 (ip), vehicle: Klucel (hydroxypropylcellulose) (HPC)
[18] = dose: 50.0 mg/kg/injection, schedule: Q04DX003 (ip), vehicle: Klucel (hydroxypropylcellulose) (HPC)
[19] = dose: 100.0 mg/kg/injection, schedule: Q01DX009 (ip), vehicle: saline with Tween-80
[20] = dose: 200.0 mg/kg/injection, schedule: Q01DX009 (ip), vehicle: saline with Tween-80
[21] = dose: 25.0 mg/kg/injection, schedule: Q01DX009 (ip), vehicle: saline with Tween-80

O=C(Nc1ccc([N+](=O)[O-])cc1)OCC#CC#CCOC(=O)Nc1ccc([N+](=O)[O-])cc1
T/C [1]: 100 % of control
T/C [2]: 100 % of control

N#CC1(c2ccc(Cl)cc2)CC1
T/C [2]: 95 % of control
T/C [3]: 92 % of control
T/C [4]: 100 % of control
T/C [5]: 100 % of control

COc1ccc(Br)cc1/C=C/[N+](=O)[O-]
T/C [6]: 87 % of control

CC1(O)CCC2C3CCC4CC(=O)CCC4(C)C3(F)C(O)CC21C (stereo unspecified)
T/C [7]: 100 % of control
T/C [8]: 90 % of control
T/C [9]: 104 % of control
T/C [10]: 86 % of control
T/C [11]: 109 % of control
T/C [12]: 104 % of control
T/C (dose: 400.0 mg/kg/injection, schedule: Q01DX001 (ip), vehicle: saline): 95 % of control
T/C [13]: 113 % of control
T/C [14]: 104 % of control

O=[N+]([O-])CC(O)C(O)C(O)C(O)CO (stereo unspecified)
T/C [8]: 95 % of control
T/C [9]: 104 % of control
T/C [11]: 100 % of control
T/C [12]: 100 % of control
T/C [13]: 100 % of control
T/C [14]: 104 % of control

O=C(NO)c1ccc(O)cc1
T/C (dose: 100.0 mg/kg/injection, schedule: Q04DX003 (ip), vehicle: saline sonified): 118 % of control
T/C (dose: 132.0 mg/kg/injection, schedule: Q04DX003 (ip), vehicle: saline sonified): 100 % of control
T/C (dose: 200.0 mg/kg/injection, schedule: Q04DX003 (ip), vehicle: saline sonified): 100 % of control

COc1ccccc1/C=C/c1ccnc2ccccc12
T/C [2]: 95 % of control
T/C [3]: 110 % of control
T/C [4]: 113 % of control
T/C [5]: 115 % of control
T/C (dose: 400.0 mg/kg/injection, schedule: Q01DX009 (ip), vehicle: Klucel (hydroxypropylcellulose) (HPC)): 122 % of control
T/C [15]: 105 % of control

CC(=O)[C@]1(O)Cc2c(O)c3c(c(O)c2[C@@H](OC2CC(N)C(O)C(C)O2)C1)C(=O)c1c(O)cccc1C3=O (stereo partly specified)
T/C (dose: 0.32 mg/kg/injection, schedule: Q04DX003 (ip), vehicle: water): 185 % of control
T/C (dose: 0.39 mg/kg/injection, schedule: Q04DX003 (ip), vehicle: water): 203 % of control
T/C (dose: 0.54 mg/kg/injection, schedule: Q04DX003 (ip), vehicle: water): 101 % of control
T/C (dose: 0.9 mg/kg/injection, schedule: Q04DX003 (ip), vehicle: water): 92 % of control
T/C (dose: 1.08 mg/kg/injection, schedule: Q04DX003 (ip), vehicle: water): 115 % of control

CC(C)S(=O)(=O)/C(Cl)=C(/Cl)C(Cl)=C(Cl)Cl
T/C (dose: 13.0 mg/kg/injection, schedule: Q01DX009 (ip), vehicle: Klucel (hydroxypropylcellulose) (HPC)): 100 % of control
T/C (dose: 20.0 mg/kg/injection, schedule: Q01DX009 (ip), vehicle: Klucel (hydroxypropylcellulose) (HPC)): 100 % of control
T/C (dose: 30.0 mg/kg/injection, schedule: Q01DX009 (ip), vehicle: Klucel (hydroxypropylcellulose) (HPC)): 95 % of control

CC(=O)OC(C)(C)/C=C/C(=O)[C@](C)(O)[C@H]1[C@H](O)C[C@@]2(C)[C@@H]3CC=C4[C@@H](C=C(O)C(=O)C4(C)C)[C@]3(C)C(=O)C[C@]12C
T/C (dose: 1.0 mg/kg/injection, schedule: Q01DX009 (ip), vehicle: saline): 100 % of control
T/C (dose: 2.0 mg/kg/injection, schedule: Q01DX009 (ip), vehicle: saline): 110 % of control

CCN1CCN(Cc2ccccc2)C(CCl)C1 (stereo unspecified)
T/C [16]: 100 % of control
T/C [17]: 100 % of control
T/C [18]: 100 % of control

CN(C)c1ccc(Cc2ccc(N(C)C)cc2[N+](=O)[O-])c([N+](=O)[O-])c1
T/C [3]: 104 % of control
T/C [5]: 100 % of control
T/C [15]: 95 % of control

C[N+](C)(C)c1ncnc2nc[nH]c12
T/C (dose: 15.0 mg/kg/injection, schedule: Q01DX010 (ip), vehicle: saline): 91 % of control and 100 % of control
T/C (dose: 30.0 mg/kg/injection, schedule: Q01DX010 (ip), vehicle: saline): 100 % of control and 104 % of control
T/C (dose: 60.0 mg/kg/injection, schedule: Q01DX010 (ip), vehicle: saline): 91 % of control and 100 % of control
T/C [7]: 100 % of control
T/C (dose: 120.0 mg/kg/injection, schedule: Q01DX010 (ip), vehicle: saline): 91 % of control and 95 % of control
T/C [10]: 110 % of control

O=C1N(c2ccccc2)CCC12CCNCC2
T/C (dose: 50.0 mg/kg/injection, schedule: Q01DX009 (ip), vehicle: saline): 94 % of control
T/C [8]: 94 % of control

OC1CCCCC2CC12 (stereo unspecified)
T/C [6]: 101 % of control
T/C [19]: 101 % of control
T/C [20]: 102 % of control

Cn1cnc([N+](=O)[O-])c1Sc1nc(N)nc2nc[nH]c12
T/C (dose: 7.0 mg/kg/injection, schedule: Q01DX009 (ip), vehicle: saline with Tween-80): 190 % of control
T/C (dose: 11.0 mg/kg/injection, schedule: Q01DX009 (ip), vehicle: saline with Tween-80): 190 % of control
T/C (dose: 16.5 mg/kg/injection, schedule: Q01DX009 (ip), vehicle: saline with Tween-80): 96 % of control

COP(=O)(OC)OC=C(Cl)Cl
T/C (dose: 6.25 mg/kg/injection, schedule: Q01DX009 (ip), vehicle: saline with Tween-80): 100 % of control
T/C (dose: 12.5 mg/kg/injection, schedule: Q01DX009 (ip), vehicle: saline with Tween-80): 103 % of control
T/C [21]: 102 % of control

OC(CCl)Cc1ccccc1 (stereo unspecified)
T/C [21]: 109 % of control
T/C [6]: 109 % of control

O=CCC(O)C(O)C(O)CO (stereo unspecified)
T/C (dose: 94.0 mg/kg/injection, schedule: Q01DX010 (ip), vehicle: saline): 100 % of control
T/C (dose: 188.0 mg/kg/injection, schedule: Q01DX010 (ip), vehicle: saline): 100 % of control
T/C (dose: 375.0 mg/kg/injection, schedule: Q01DX010 (ip), vehicle: saline): 113 % of control
T/C (dose: 750.0 mg/kg/injection, schedule: Q01DX010 (ip), vehicle: saline): 100 % of control

O=C1CC(c2ccc(O)cc2)C2(O1)C(=O)OC(C(O)CO)C2O (stereo unspecified)
T/C (dose: 50.0 mg/kg/injection, schedule: Q01DX010 (ip), vehicle: saline): 100 % of control
T/C (dose: 100.0 mg/kg/injection, schedule: Q01DX010 (ip), vehicle: saline): 100 % of control
T/C (dose: 200.0 mg/kg/injection, schedule: Q01DX010 (ip), vehicle: saline): 105 % of control
T/C (dose: 400.0 mg/kg/injection, schedule: Q01DX010 (ip), vehicle: saline): 105 % of control

C/C(=N\N1CCCCCC1)c1ccccc1
T/C (dose: 50.0 mg/kg/injection, schedule: Q04DX003 (sc), vehicle: olive oil, sesame oil, peanut oil): 95 % of control
T/C (dose: 100.0 mg/kg/injection, schedule: Q04DX003 (sc), vehicle: olive oil, sesame oil, peanut oil): 95 % of control
T/C (dose: 200.0 mg/kg/injection, schedule: Q04DX003 (sc), vehicle: olive oil, sesame oil, peanut oil): 91 % of control

[Cl][Co]([Cl])[Cl].[NH-]CC[N-]CC[NH-]
T/C [6]: 109 % of control
T/C [19]: 109 % of control

CC1CC(C)(C)N=C(C[Si](C)(C)CC2=NC(C)(C)CC(C)O2)O1 (stereo unspecified)
T/C [17]: 114 % of control
T/C [18]: 109 % of control
T/C [3]: 113 % of control

O=C1NC(C2CC3C=CC2C3)Nc2ccccc21 (stereo unspecified)
T/C (dose: 12.5 mg/kg/injection, schedule: Q01DX009 (ip), vehicle: Klucel (hydroxypropylcellulose) (HPC)): 104 % of control
T/C [16]: 100 % of control
T/C (dose: 25.0 mg/kg/injection, schedule: Q01DX009 (ip), vehicle: Klucel (hydroxypropylcellulose) (HPC)): 104 % of control
T/C [17]: 86 % of control
T/C [1]: 95 % of control

CC(C)=CBr
T/C (dose: 198.0 mg/kg/injection, schedule: Q01DX005 (ip), vehicle: saline): 92 % of control
T/C (dose: 300.0 mg/kg/injection, schedule: Q01DX005 (ip), vehicle: saline): 100 % of control

Cc1ccc2c(c1)CCCN2C=O
T/C [6]: 104 % of control
T/C [19]: 109 % of control
T/C [20]: 123 % of control

Cc1ccn2c(CCc3nnc4cc(C)ccn34)nnc2c1
T/C [6]: 90 % of control
T/C [19]: 93 % of control
T/C [20]: 106 % of control

O=C1c2ccccc2C(=O)c2c(NCCN3CCCCC3)ccc(NCCN3CCCCC3)c21
T/C (dose: 50.0 mg/kg/injection, schedule: Q01DX009 (ip), vehicle: other): 115 % of control
